Measurements: PubChem BioAssay AID2376 (NMMLSC, 2010)

Molecular target: Cell division control protein 42 homolog (Homo sapiens) (UniProt P60953)
Test: concentration effect on fluorescent GTP binding to Cdc42 – biochemical, nucleotide-depleted protein, Mg buffer, constant GTP, mechanism study for Ras-family GTPase inhibitor project, dose response (AID 2376)
Conditions: GST-Cdc42 beads, BODIPY-GTP binding, flow cytometry

Sequence of Cell division control protein 42 homolog (Homo sapiens) (P60953 whole entry, looked up): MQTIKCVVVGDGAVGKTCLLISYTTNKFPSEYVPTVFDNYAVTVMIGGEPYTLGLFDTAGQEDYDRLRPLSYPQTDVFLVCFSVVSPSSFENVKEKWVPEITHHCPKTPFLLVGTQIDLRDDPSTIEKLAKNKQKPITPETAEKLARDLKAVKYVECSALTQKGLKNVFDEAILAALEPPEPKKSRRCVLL

EC50: 263 nM
SMILES: COc1ccc(C2CC(c3ccccc3)=NN2c2ccc(S(N)(=O)=O)cc2)cc1 (stereo unspecified)
